The values that follow come from ChEMBL document CHEMBL1152311, “A multipronged approach to the study of peruvian ethnomedicinal plants: a legacy of the ICBG-Peru Project” (J Nat Prod, 2009).

Data set [1] has as its system HT-29. Kind of data set: Cytotoxicity against human HT-29 cells. Format: functional.
For data set [2], the system named is MCF7. Kind of data set: Cytotoxicity against human MCF7 cells. It is filed as functional.
For data set [3], the system named is Saccharomyces cerevisiae. Kind of data set: Antimicrobial activity against Saccharomyces cerevisiae RS321. Format: functional.
The test system of data set [4] is Leishmania amazonensis. Kind of data set: Antileishmanial activity against Leishmania amazonensis axenic amastigotes. It is filed as functional.
Data set [5] in a line: Cytotoxicity against mouse 3T3 cells. The following applies: BALB/3T3 clone A31 cells. Format: cell-based.
Data set [6] concerns ME-180. Kind of data set: Cytotoxicity against human ME180 cells. Format: functional.
Data set [7] has as its system NCI-H460. Kind of data set: Cytotoxicity against human H460 cells. Format: functional.
Data set [8] has as its system Mycobacterium tuberculosis. Kind of data set: Antituberculosis activity against Mycobacterium tuberculosis H37Rv. It is filed as functional, organism-based.
For data set [9], the system named is DU-145. Kind of data set: Cytotoxicity against human DU145 cells. It is filed as functional.
Data set [10] concerns K562. Kind of data set: Cytotoxicity against human K562 cells. Format: functional.
Data set [11] is described as follows: Cytotoxicity against african green monkey Vero cells. The following applies: chlorocebus sabaeus. Format: cell-based.
Data set [12] relates to M14. Kind of data set: Cytotoxicity against human M14 cells. It is filed as functional.
Data set [13] concerns PC-3. Kind of data set: Cytotoxicity against human PC3 cells. Format: functional.
Data set [14] has as its system Trypanosoma cruzi. Kind of data set: Antitrypanosomal activity against Trypanosoma cruzi Tulahuen C4 transfected with beta-galactosidase. Format: functional.
For data set [15], the species on record is Mus musculus. Kind of data set: Wound healing activity in mouse. It is filed as functional.
Data set [16] relates to Saccharomyces cerevisiae. Kind of data set: Antimicrobial activity against Saccharomyces cerevisiae RS322. Format: functional.

For orientation: GI50 means the concentration that inhibits growth by half. What is called ED50 is the dose that gives a 50% effect, or the effect in half of the subjects.

SMILES strings stand for the structures. Calls of active or inactive are those of the source. No cut-off for these calls is given here.

For the molecule `C/C=C1/C(=O)O[C@]23C=C[C@@H]4C(C(=O)OC)=CO[C@H](O[C@@H]12)[C@@H]43` [PLUMERICIN], the GI50 in data set [1] is above 430 µM; in data set [2] it was above 430 µM; in data set [5], 431 µM; in [6], above 430 µM; in [7], 276 µM; in data set [9] it was above 430 µM. This molecule had an IC12 in data set [3] of 241 µM. This molecule also had an Activity in data set [4] of 5 µM. Moreover, the result in [8] was inactive.
As for `COc1ccc(CCC(=O)c2c(O)cc(O)cc2OC)cc1`, the GI50 in data set [10] stood at 24.5 µM; in data set [1], 117 µM; in data set [2], 75.7 µM; in data set [11], 134 µM; in data set [12], 133 µM; in [5], 141 µM. For the same molecule, the GI50 in data set [13] worked out at 153 µM; in data set [7] it was 148 µM; in data set [9] it was 138 µM.
As to `C=CCOc1cc(OC)c(C(=O)/C=C/c2ccc(OC)cc2)c(OCC=C)c1`, the GI50 was determined as 43.4 µM in data set [10]; 74.3 µM in data set [1]; 51 µM in data set [2]; 72.2 µM in data set [12]; 107 µM in data set [5]; 47.3 µM in data set [13]. For the same molecule, the values for the GI50 in data set [7] and in [9] were 52.3 µM and 54.9 µM, respectively. This molecule returned an Activity in data set [14] of 1.5 µM.
As for `CC(C)=CCC[C@](C)(O)[C@H]1CC=C(C)CC1`, the GI50 in [10] worked out at 40.5 µM; in data set [1], 28.9 µM; in data set [2], 30 µM; in [12], 15.1 µM; in data set [5] it was 54.7 µM; in [13], 28.5 µM. Further, the results for the GI50 in data set [6], in [7] and in [9] were 18.2 µM, 32.8 µM and 25.8 µM, respectively. Further, the ED50 in data set [15] worked out at 155 mg/kg.
As to `COC(=O)C1=CO[C@H](C)[C@@H]2CN3CC[C@@]4(C(=O)Nc5ccccc54)[C@H]3C[C@@H]12` [UNCARINE E], the IC12 in data set [16] stood at 380 µM; in data set [3], 326 µM. In addition, the GI50 amounted to 62.4 µM in data set [5], 67.9 µM in data set [6], 46.1 µM in data set [7] and 114 µM in data set [9].
`C[C@H](C/C=C\C(C)(C)OO)[C@H]1CC[C@@]2(C)[C@@H]3CC[C@H]4C(C)(C)[C@@H](O)CC[C@@]45C[C@@]35CC[C@]12C`: the GI50 in data set [10] is 65.2 µM; in data set [1] it was 65.2 µM; in data set [2], above 136 µM; in data set [11], above 136 µM; in [12], 58.6 µM; in data set [5] it was 82.6 µM. The GI50 in data set [13] is above 136 µM; in data set [7], 67.4 µM; in data set [9], 78.7 µM. For the same molecule, the Activity in [4] was 5.2 µM. Also, the outcome in [8] was inactive.
